# Measurements reported in article PMC7523345 (Investigational new drugs, 2018).
# Experiments:
# [1] = system: human T-ALL xenograft models; details: single agent; nonclinical; cited from earlier work
# advanced solid tumours = assay: Tumour response by RECIST 1.1; assay type: in vivo, human
# solid tumour xenografts = details: including 3 breast, 1 NSCLC, 1 pancreatic carcinoma; nonclinical; cited from earlier work
# [2] = in vivo; cited from earlier work
# [3] = target: Notch receptors (Notch1 to 4); details: all 4 mammalian Notch receptors (Notch1 to 4); nonclinical; cited from earlier work
structure (smiles),measurement,setting,value
Cc1cccc2c1NC(=O)[C@@H](NC(=O)[C@H](CCC(F)(F)F)[C@H](CCC(F)(F)F)C(N)=O)N=C2c1cccc(F)c1 [BMS-986115],Efficacy in human T-ALL xenograft models,[1],effective as a single agent
same,Subjects with progressive disease as best tumour response,advanced solid tumours; 36 treated subjects,58%
same,Subjects with stable disease (SD) as best tumour response,advanced solid tumours; 36 treated subjects,31%
same,Subjects with SD for more than 6 months,"advanced solid tumours; 36 treated subjects, both arms",5 subjects
same,Patients with stable disease for more than 6 months,advanced solid tumours; Arm A,Three
same,Patients with stable disease for more than 6 months,advanced solid tumours; Arm B,2 patients
same,Patients with prolonged SD of >6 months with disease shrinkage,advanced solid tumours; dose levels that are pharmacodynamically active,3 patients
same,maximum tumor shrinkage,"advanced solid tumours; patient with clear cell renal cell carcinoma, 1.2 mg QD, after ~5.5 months of treatment",23.9%
same,maximum disease shrinkage,"advanced solid tumours; patient with fibromatosis, 1.5 mg QD, after ~9 months of treatment",16.5%
same,maximum tumor shrinkage,"advanced solid tumours; patient with retroperitoneal liposarcoma, 2 mg QD, after ~7.5 months of treatment",13.8%
same,Solid tumour xenografts with anti-tumour activity,solid tumour xenografts,5 out of 7
same,Main pharmacological toxicities in animal studies,[2],"dose-dependent gastrointestinal (GI) toxicity, lymphoid depletion, and interruption of ovarian follicle maturation"
same,median inhibitory concentrations (IC50s),[3],low nanomolar
